These results are taken from ChEMBL document CHEMBL4725294, “Centrally Active Multitarget Anti-Alzheimer Agents Derived from the Antioxidant Lead CR-6” (J Med Chem, 2020).

Activity calls are given as the source filed them. The rule behind the calls is not given here.

Series [1] concerns the target T1, Beta-secretase 1 (Homo sapiens, UniProt P56817). As to the kind of experiment: Inhibition human BACE1 expressed in baculovirus expression system using Panvera peptide as substrate measured after 60 mins by fluorescence assay.
Series [2] concerns the target T2, Acetylcholinesterase (Homo sapiens, UniProt P22303).
Description: (§1) Inhibition of recombinant human AChE expressed in HEK293 cells using acetylthiocholine iodide as substrate preincubated for 15 mins followed by substrate addition by Ellman's method
Series [3] concerns the target T3, Cholinesterase (Homo sapiens, UniProt P06276).
Description: (§2) Inhibition of recombinant human BChE using butyrylthiocholine iodide as substrate preincubated for 15 mins followed by substrate addition by Ellman's method
The nature of series [4]: in vitro. The conditions noted are these: PAMPA.
Description: Permeability of compound in PBS/EtOH buffer (7:3) PAMPA-BBB assay
The target in series [5] is T1, Beta-secretase 1. As to the kind of experiment: Inhibition human BACE1 expressed in baculovirus expression system at 5 uM using Panvera peptide as substrate measured after 60 mins by fluorescence assay relative to control. The conditions noted are these: 1 h; for inhibition (INH): 5 µM.
Series [6] has as its target T3, Cholinesterase. As to the kind of experiment: Potency index, ratio of tacrine IC50 to test compound IC50 for recombinant human BChE.
Series [7] deals with T2, Acetylcholinesterase. Kind of series: Potency index, ratio of tacrine IC50 to test compound IC50 for recombinant human AChE expressed in HEK293 cells. The class given is cell-based.
The target in series [8] is T2, Acetylcholinesterase. Kind of series: Mixed inhibition of recombinant human AChE expressed in HEK293 cells assessed as dissociation constant for enzyme-inhibitor complex using varying levels of acetylthiocholine iodide as substrate preincubated for 15 mins followed by substrate addition by Line-weaver Burk plot analysis.
Series [9] has as its target T2, Acetylcholinesterase. Kind of series: Mixed inhibition of recombinant human AChE expressed in HEK293 cells assessed as dissociation constant for enzyme-substrate-inhibitor complex using varying levels of acetylthiocholine iodide as substrate preincubated for 15 mins followed by substrate addition by Line-weaver Burk plot analysis.
Series [10] deals with Acetylcholinesterase (Electrophorus electricus, UniProt O42275). As to the kind of experiment: Displacement of propidium iodide from PAS region of electric eel AChE by fluorescence assay.
The nature of series [11]: Drug level in human liver microsomes treated with N-{8-[(6-Chloro-1,2,3,4-tetrahydroacridin-9-yl)amino]octyl}-2-(6-hydroxy-7-methoxy-2-methylchroman-2-yl)acetamide at 5 uM measured up to 60 mins by UPLC-MS/MS analysis. The class given is ADME, Microsome. The conditions noted are these: 1 h. (In general: Microsomes from liver hold many membrane-bound enzymes, among them those of drug oxidation.)

A short description of series [12]: Drug level in mouse liver microsomes treated with N-{8-[(6-Chloro-1,2,3,4-tetrahydroacridin-9-yl)amino]octyl}-2-(6-hydroxy-7-methoxy-2-methylchroman-2-yl)acetamide at 5 uM measured up to 60 mins by UPLC-MS/MS analysis. The class given is ADME, Microsome. The conditions noted are these: 1 h.
Series [13] is described as follows: Drug level in rat liver microsomes treated with N-{8-[(6-Chloro-1,2,3,4-tetrahydroacridin-9-yl)amino]octyl}-2-(6-hydroxy-7-methoxy-2-methylchroman-2-yl)acetamide at 5 uM measured up to 60 mins by UPLC-MS/MS analysis. As to conditions: 1 h. In kind it is ADME, Microsome.
Series [14] deals with T2, Acetylcholinesterase. As to conditions: hek293.
Description: as §1
For series [15], the target named is T3, Cholinesterase. The source holds these as a separate data set.
Description: as §2
Series [16] has as its target T2, Acetylcholinesterase. As to the kind of experiment: Inhibition of recombinant human AChE expressed in HEK293 cells at 100 uM using acetylthiocholine iodide as substrate preincubated for 15 mins followed by substrate addition by Ellman's method. For orientation: Ellman's reagent forms a yellow product with free thiols.
The target of series [17] is T3, Cholinesterase. Kind of series: Inhibition of recombinant human BChE at 100 uM using butyrylthiocholine iodide as substrate preincubated for 15 mins followed by substrate addition by Ellman's method.

T2 sequence (P22303 whole entry): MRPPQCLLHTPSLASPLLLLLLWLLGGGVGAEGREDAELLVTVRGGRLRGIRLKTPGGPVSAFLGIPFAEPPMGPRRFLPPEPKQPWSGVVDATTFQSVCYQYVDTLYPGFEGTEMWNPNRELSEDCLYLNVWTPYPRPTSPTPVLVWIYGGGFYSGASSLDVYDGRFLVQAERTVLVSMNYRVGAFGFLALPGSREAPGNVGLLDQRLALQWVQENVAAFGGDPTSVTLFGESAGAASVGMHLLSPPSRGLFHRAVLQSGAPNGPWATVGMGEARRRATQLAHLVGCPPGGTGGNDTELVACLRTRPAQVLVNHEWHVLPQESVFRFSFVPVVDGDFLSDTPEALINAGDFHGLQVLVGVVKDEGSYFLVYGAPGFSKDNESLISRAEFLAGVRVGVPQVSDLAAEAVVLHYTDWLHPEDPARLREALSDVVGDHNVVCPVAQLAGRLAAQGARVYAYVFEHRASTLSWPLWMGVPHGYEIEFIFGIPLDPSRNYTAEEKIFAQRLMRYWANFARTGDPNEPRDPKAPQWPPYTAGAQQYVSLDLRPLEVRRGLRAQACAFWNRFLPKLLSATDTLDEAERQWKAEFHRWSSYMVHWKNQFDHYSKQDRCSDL
T1 sequence (P56817 whole entry): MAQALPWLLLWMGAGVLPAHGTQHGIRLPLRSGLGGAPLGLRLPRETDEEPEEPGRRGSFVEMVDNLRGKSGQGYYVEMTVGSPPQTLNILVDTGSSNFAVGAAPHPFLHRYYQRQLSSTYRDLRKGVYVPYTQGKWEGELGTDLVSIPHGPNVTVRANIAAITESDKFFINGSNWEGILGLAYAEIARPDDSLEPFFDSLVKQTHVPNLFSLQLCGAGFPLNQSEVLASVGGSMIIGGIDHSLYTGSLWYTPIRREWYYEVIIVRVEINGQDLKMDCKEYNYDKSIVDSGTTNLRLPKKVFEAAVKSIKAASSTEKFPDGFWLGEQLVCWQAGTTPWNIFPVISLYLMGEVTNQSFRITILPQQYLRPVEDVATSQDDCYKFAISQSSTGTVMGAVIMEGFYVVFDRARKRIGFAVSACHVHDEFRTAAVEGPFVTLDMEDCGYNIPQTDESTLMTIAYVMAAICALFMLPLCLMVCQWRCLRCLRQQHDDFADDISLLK
T3 sequence (P06276 whole entry): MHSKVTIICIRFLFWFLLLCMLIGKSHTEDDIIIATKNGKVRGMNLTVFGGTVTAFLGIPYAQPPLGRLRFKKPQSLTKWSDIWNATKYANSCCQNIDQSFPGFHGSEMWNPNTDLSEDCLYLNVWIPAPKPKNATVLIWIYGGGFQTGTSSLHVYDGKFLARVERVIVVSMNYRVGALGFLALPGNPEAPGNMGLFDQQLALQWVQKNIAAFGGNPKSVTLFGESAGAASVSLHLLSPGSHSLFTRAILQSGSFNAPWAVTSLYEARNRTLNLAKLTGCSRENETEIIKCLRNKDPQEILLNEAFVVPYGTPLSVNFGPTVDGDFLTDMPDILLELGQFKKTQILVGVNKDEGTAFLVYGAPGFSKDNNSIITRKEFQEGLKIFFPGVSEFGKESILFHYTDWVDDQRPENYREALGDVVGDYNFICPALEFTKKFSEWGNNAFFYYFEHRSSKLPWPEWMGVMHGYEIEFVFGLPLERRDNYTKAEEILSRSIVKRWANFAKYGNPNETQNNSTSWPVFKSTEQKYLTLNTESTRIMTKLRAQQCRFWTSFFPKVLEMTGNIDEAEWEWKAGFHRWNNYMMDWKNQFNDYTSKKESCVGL
Chain of Acetylcholinesterase (Electrophorus electricus, UniProt O42275) (O42275 whole entry): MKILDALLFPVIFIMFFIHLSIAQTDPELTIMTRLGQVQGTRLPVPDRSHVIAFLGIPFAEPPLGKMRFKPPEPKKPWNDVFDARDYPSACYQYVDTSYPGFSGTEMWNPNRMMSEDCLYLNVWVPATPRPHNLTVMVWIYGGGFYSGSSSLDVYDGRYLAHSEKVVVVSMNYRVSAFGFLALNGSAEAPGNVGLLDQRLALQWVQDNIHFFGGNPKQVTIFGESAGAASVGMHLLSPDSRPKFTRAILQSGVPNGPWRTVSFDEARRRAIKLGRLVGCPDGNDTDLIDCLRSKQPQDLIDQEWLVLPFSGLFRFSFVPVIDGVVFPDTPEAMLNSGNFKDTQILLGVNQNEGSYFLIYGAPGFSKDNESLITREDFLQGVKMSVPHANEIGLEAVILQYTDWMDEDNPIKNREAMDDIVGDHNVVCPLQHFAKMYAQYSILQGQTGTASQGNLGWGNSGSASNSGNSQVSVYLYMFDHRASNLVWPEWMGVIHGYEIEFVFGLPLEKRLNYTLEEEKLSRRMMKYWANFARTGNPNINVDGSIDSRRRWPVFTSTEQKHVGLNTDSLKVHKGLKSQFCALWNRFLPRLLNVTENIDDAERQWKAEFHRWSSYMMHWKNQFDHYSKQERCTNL

`COc1cc2c(cc1OCc1ccccc1)CCC(C)(CC(=O)NCCCCCCCNc1c3c(nc4cc(Cl)ccc14)CCCC3)O2` (configuration not stated): the IC50 (commonly the concentration that inhibits the measured activity by half) in series [1] (read-out: IC50) amounted to 12500 nM; in [2], 6.99 nM; in series [3], 51 nM. In addition, the Papp (as a rule, the rate of passage across a membrane or cell layer, normalised by area and donor concentration) in series [4] was determined as 11.5 ×10⁻⁶ cm/s.
On to `COc1cc2c(cc1O)CCC(C)(CCNCCOCCOCCNc1c3c(nc4cc(Cl)ccc14)CCCC3)O2` (configuration not stated), for which 5 µM produced 19.9% inhibition in series [5]. The IC50 in [2] is 8.35 nM; in series [3] it was 180 nM. This compound came in with a Papp in series [4] of 9.7 ×10⁻⁶ cm/s.
Take `COc1cc2c(cc1O)CCC(C)(CCNCCCCCCCCCNc1c3c(nc4cc(Cl)ccc14)CCCC3)O2` (configuration not stated): in series [6], the Ratio IC50 turned out to be 2. Further, the inhibition – broadly, the percentage by which the read-out fell short of the control – at 5 µM in series [5] worked out at 28.1%. In addition, the figures for the IC50 in series [2] and in series [3] were 0.27 nM and 18.3 nM, respectively. Further, the Papp in series [4] amounted to 10.1 ×10⁻⁶ cm/s.
On to `COc1cc2c(cc1O)CCC(C)(CC(=O)NCCOCCOCCNc1c3c(nc4cc(Cl)ccc14)CCCC3)O2` (configuration not stated), for which the figures for the IC50 entry in series [1], in series [2] and in series [3] were “Not Active”, 47.9 nM and 1840 nM, respectively. Further, the “inhibition (INH)” value in [5] is reported as “Not Active”. The same compound had an apparent permeability (Papp) in [4] of 7 ×10⁻⁶ cm/s.
As for `COc1cc2c(cc1O)CCC(C)(CC(=O)NCCCCCCNc1c3c(nc4ccccc14)CCCC3)O2` (configuration not stated), the Ratio IC50 is less than 5 in [7] and 7 in [6]. For the same compound, the IC50 result in series [1] is “Not Active”; in series [2] it was 275 nM; in series [3] it was 4.99 nM. Moreover, the “inhibition (INH)” value in [5] is on record as “Not Active”. In series [4], this compound returned a Papp of 4.3 ×10⁻⁶ cm/s.
For `COc1cc2c(cc1O)CCC(C)(CCNCCCCCCCCNc1c3c(nc4cc(Cl)ccc14)CCCC3)O2` (configuration not stated), in [6], the Ratio IC50 came to 2. Besides, the Ki – broadly, the dissociation constant of the complex between target and ligand, obtained from inhibition or displacement – is 0.132 nM in series [8] and 0.258 nM in series [9]. Also, binding in series [10] was characterised by a dissociation constant (Kd) of 2030 nM. The compound also displayed an inhibition at 5 µM in series [5] of 24.8%. Moreover, the figures for the half-inhibitory concentration (IC50) in series [2] and in series [3] were 0.12 nM and 13.4 nM, respectively. This compound also had an apparent permeability (Papp) in series [4] of 12.5 ×10⁻⁶ cm/s.
Take `COc1cc2c(cc1O)CCC(C)(CC(=O)NCCCCCCCNc1c3c(nc4ccccc14)CCCC3)O2` (configuration not stated): the Ratio IC50 is less than 5 in series [7] and 7 in series [6]. Moreover, the IC50 result in series [1] was “Not Active”; in series [2], 111 nM; in [3], 4.28 nM. For the same compound, in series [5], the “inhibition (INH)” value is listed as “Not Active”. Moreover, the Papp in [4] stood at 6.6 ×10⁻⁶ cm/s.
Regarding `COc1cc2c(cc1O)CCC(C)(CC(=O)NCCCCCCCCCNc1c3c(nc4ccccc14)CCCC3)O2` (configuration not stated), the Ratio IC50 was less than 5 in [7] and 7 in series [6]. For the same compound, in series [5], at 5 µM the inhibition was 6.75%. The IC50 in series [2] turned out to be 57.8 nM; in [3] it was 5.36 nM. In [4], this compound showed a Papp of 8.9 ×10⁻⁶ cm/s.
For the compound `COc1cc2c(cc1O)CCC(C)(CCC(=O)NCCCCCCCNc1c3c(nc4cc(Cl)ccc14)CCCC3)O2` (configuration not stated), in series [5], testing at 5 µM gave an inhibition of 14%. Also, the IC50 came out at 7.94 nM in [2] and 187 nM in series [3]. The compound further came in with an apparent permeability coefficient (Papp) in [4] of 8.3 ×10⁻⁶ cm/s.
For `COc1cc2c(cc1OCc1ccccc1)CCC(C)(CC(=O)NCCCCCCCCCNc1c3c(nc4cc(Cl)ccc14)CCCC3)O2` (configuration not stated), the half-maximal inhibitory concentration (IC50) came out at 7190 nM in [1] (read-out: IC50), 7.89 nM in [2] and 30.6 nM in [3]. The compound further returned a Papp in [4] of 10.4 ×10⁻⁶ cm/s.
Taken in the same sequence, the figures for `COc1cc2c(cc1OCc1ccccc1)CCC(C)(CC(=O)NCCCCCCNc1c3c(nc4cc(Cl)ccc14)CCCC3)O2` (configuration not stated) were 18000 nM, 11 nM, 201 nM and 10.7 ×10⁻⁶ cm/s.
`COc1cc2c(cc1O)CCC(C)(CCC(=O)NCCCCCCCCNc1c3c(nc4cc(Cl)ccc14)CCCC3)O2` (configuration not stated): the values for the half-inhibitory concentration (IC50) result in series [1], in series [2] and in [3] were “Not Active”, 6.23 nM and 148 nM, respectively. Moreover, the “inhibition (INH)” value in series [5] is “Not Active”. Moreover, in [4], the apparent permeability (Papp) turned out to be 8.7 ×10⁻⁶ cm/s.
For `COC1=CC(=O)C(CCC(C)(O)CC(=O)NCCCCCCCCNc2c3c(nc4cc(Cl)ccc24)CCCC3)=CC1=O` (configuration not stated), the Drug metabolism entry in [11], in series [12] and in [13] was “Metabolite_Detected” each time.
On to `Nc1c2c(nc3cc(Cl)ccc13)CCCC2`, for which the Drug metabolism result in [11], in series [12] and in [13] was “Metabolite_Detected” in each case. For the same compound, the Papp in [4] is 26.1 ×10⁻⁶ cm/s.
Take `COc1cc2c(cc1O)CCC(C)(CC(=O)O)O2` (configuration not stated): the IC50 result in series [14] and in series [15] was “Not Active” each time. Further, the Papp in series [4] is 0.4 ×10⁻⁶ cm/s.
In the case of `COc1cc2c(cc1O)CCC(C)(CC(=O)NCCCCCCCCNc1c3c(nc4ccccc14)CCCC3)O2` (configuration not stated), the Ratio IC50 in [7] was less than 5; in [6], 7. Further, the IC50 result is “Not Active” in [1], 69.8 nM in series [2] and 5.33 nM in series [3]. Moreover, the “inhibition (INH)” value in series [5] is “Not Active”. This compound also yielded an apparent permeability coefficient (Papp) in series [4] of 7.3 ×10⁻⁶ cm/s.
For `COc1cc2c(cc1O)CCC(C)(CC(=O)NCCCCCCCNc1c3c(nc4cc(Cl)ccc14)CCCC3)O2` (configuration not stated), the IC50 result in series [1] was “Not Active”; in series [2] it was 5.43 nM; in [3], 79.1 nM. Besides, the “inhibition (INH)” value in series [5] is given as “Not Active”. In series [4], this compound came in with an apparent permeability coefficient (Papp) of 9.7 ×10⁻⁶ cm/s.
Turning to `COc1cc2c(cc1O)CCC(C)(CCC(=O)NCCCCCCNc1c3c(nc4cc(Cl)ccc14)CCCC3)O2` (configuration not stated), the IC50 result in [1] was “Not Active”; in series [2], 3.8 nM; in [3], 102 nM. Moreover, the “inhibition (INH)” value in series [5] is recorded as “Not Active”. Besides, in series [4], the apparent permeability (Papp) was determined as 7.8 ×10⁻⁶ cm/s.
Consider `COc1cc2c(cc1O)CCC(C)(CCNCCCCCCCNc1c3c(nc4cc(Cl)ccc14)CCCC3)O2` (configuration not stated), for which the Ratio IC50 in [6] is 2. The IC50 entry is “Not Active” in series [1], 0.44 nM in [2] and 17.4 nM in series [3]. For the same compound, the “inhibition (INH)” value in [5] was “Not Active”. In series [4], this compound gave an apparent permeability (Papp) of 10.3 ×10⁻⁶ cm/s.
`COc1cc(O)c(CCC(C)(O)CC(=O)NCCCCCCCCNc2c3c(nc4cc(Cl)ccc24)CCCC3)cc1O` (configuration not stated): the Drug metabolism entry in series [11], in series [12] and in series [13] was “Metabolite_Detected” each time.
Regarding `COc1cc2c(cc1O)CCC(C)(CC(=O)NCCCCCCCCCNc1c3c(nc4cc(Cl)ccc14)CCCC3)O2` (configuration not stated), the concentration for half-maximal inhibition (IC50) entry in series [1] is “Not Active”; in [2], 2.05 nM; in series [3], 168 nM. Further, the “inhibition (INH)” value in series [5] is “Not Active”. The Papp in series [4] is 8.2 ×10⁻⁶ cm/s.
`COc1cc2c(cc1O)CCC(C)(CCN)O2` (configuration not stated): the inhibition result in series [16] and in [17] was “inactive” throughout. In addition, the concentration for half-maximal inhibition (IC50) in [2] was determined as 101000 nM; in [3], 23200 nM. In [4], this compound yielded a Papp of 1 ×10⁻⁶ cm/s.
With `COC1=CC(=O)C2(CCC(C)(CC(=O)NCCCCCCCCNc3c4c(nc5cc(Cl)ccc35)CCCC4)O2)CC1=O` (configuration not stated), the Drug metabolism result in series [11], in series [12] and in series [13] was “Metabolite_Detected” each time.
